In general, IC50 refers to the midpoint of a concentration-inhibition curve.

This is an account of results in patent publication US20260132132A1, “3A,4,5,6-TETRAHYDRO-1 H-PYRAZOLO[3,4-C]PYRIDIN-7(7AH)-ONE DERIVATIVES AS FACTOR XIIA INHIBITORS” (KALVISTA PHARMACEUTICALS LIMITED, priority 2022, published 2026).

One experiment concerns the target FXa (Homo sapiens, UniProt P00742). The experiment in a line: Related protease inhibition: FXa, fluorogenic substrate. The format is biochemical. As to conditions: fluorogenic substrate at Km, 25° C.; H1-H3 = % activity at 40 μM. As to the method:
Human serine protease enzyme Plasma Kallikrein, KLK1, FXa, Plasmin, Thrombin and Trypsin were assayed for enzymatic activity using an appropriate fluorogenic substrate at Km concentration, FXIa at fixed substrate concentration of 100 μM and various concentrations of the test compound.

Experiment [1] concerns the target T1, Human Factor XIIa (hFXIIa) (Homo sapiens, UniProt P00748).
T1 construct: purchased Enzyme Research Laboratories
T1 sequence (P00748 373-615 limits assumed): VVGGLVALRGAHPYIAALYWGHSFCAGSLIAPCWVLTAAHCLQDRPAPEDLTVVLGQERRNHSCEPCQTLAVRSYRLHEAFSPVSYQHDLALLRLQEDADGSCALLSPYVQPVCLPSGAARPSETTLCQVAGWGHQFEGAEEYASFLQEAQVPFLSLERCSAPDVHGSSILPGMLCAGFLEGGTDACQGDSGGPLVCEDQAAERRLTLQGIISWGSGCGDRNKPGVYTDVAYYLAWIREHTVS
T1 sequence (P00748 20-372 partner limits assumed): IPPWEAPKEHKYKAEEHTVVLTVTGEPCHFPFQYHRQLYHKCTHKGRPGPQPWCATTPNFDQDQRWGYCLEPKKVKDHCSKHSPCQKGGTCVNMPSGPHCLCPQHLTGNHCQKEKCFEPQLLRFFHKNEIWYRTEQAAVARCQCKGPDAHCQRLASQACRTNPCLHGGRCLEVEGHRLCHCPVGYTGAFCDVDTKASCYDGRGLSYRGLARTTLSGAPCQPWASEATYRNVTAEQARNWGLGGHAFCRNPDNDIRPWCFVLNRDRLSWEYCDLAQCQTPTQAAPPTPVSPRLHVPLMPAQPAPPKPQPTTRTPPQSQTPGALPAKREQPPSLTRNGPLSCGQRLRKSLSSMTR
In words: Determination of Human Factor XIIa (hFXIIa) inhibition, fluorogenic substrate IC50 assay. The format is biochemical. As to conditions: fluorogenic substrate H-DPro-Phe-Arg-AFC at Km, 25° C., read-out: Human FXIIa IC50. As for the experimental part:
Determination of Human Factor XIIa (hFXIIa) inhibition
The Km for the cleavage of the substrate by hFXIIa was determined by standard transformation of the Michaelis-Menten equation, with subsequent inhibition assays performed at substrate Km concentration.

Chain of FXa (P00742 235-488 limits assumed): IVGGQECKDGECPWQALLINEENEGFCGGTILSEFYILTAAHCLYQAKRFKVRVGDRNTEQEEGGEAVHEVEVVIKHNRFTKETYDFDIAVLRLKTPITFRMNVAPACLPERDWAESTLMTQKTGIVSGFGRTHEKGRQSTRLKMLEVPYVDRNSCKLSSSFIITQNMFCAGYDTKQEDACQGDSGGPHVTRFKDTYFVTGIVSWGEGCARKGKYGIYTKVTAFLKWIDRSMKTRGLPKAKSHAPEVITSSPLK
Chain of FXa (P00742 41-179 partner limits assumed): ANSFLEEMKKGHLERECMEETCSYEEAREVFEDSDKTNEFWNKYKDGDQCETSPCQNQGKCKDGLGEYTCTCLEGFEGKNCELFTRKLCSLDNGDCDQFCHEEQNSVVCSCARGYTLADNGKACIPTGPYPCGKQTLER

With `Cc1cc(CNC(=O)c2nn(-c3cccc(Cl)c3)c3c2CCN(c2ccc4c(c2)C(=O)N(CCF)CC4)C3=O)nn1C` [Example 1254, 1-(3-chlorophenyl)-N-((1,5-dimethyl-1H-pyrazol-3-yl)methyl)-6-(2-(2-fluoroethyl)-1-oxo-1,2,3,4-tetrahydroisoquinolin-7-yl)-7-oxo-4,5,6,7-tetrahydro-1H-pyrazolo[3,4-c]pyridine-3-carboxamide], the half-inhibitory concentration (IC50) at FXa lay within 10000 to 40000 nM; in experiment [1] it was 10 to 100 nM.

Regarding `Cc1cc(CNC(=O)c2nn(-c3cccc(Cl)c3)c3c(=O)n(-c4ccc5c(c4)C(=O)N(CCO)CC5)c(C)nc23)nn1C` [Example 3015, 1-(3-chlorophenyl)-N-((1,5-dimethyl-1H-pyrazol-3-yl)methyl)-6-(2-(2-hydroxyethyl)-1-oxo-1,2,3,4-tetrahydroisoquinolin-7-yl)-5-methyl-7-oxo-6,7-dihydro-1H-pyrazolo[4,3-d]pyrimidine-3-carboxamide], the IC50 against FXa is above 40000 nM; in experiment [1] it was 10 to 100 nM.

As to `Cc1ccncc1COCc1nn(-c2cccc(Cl)c2)c2c1CCN(c1ccc3c(c1)C(=O)N(C)CC3)C2=O` [Example 1356, 7-(1-(3-chlorophenyl)-3-(((4-methylpyridin-3-yl)methoxy)methyl)-7-oxo-1,4,5,7-tetrahydro-6H-pyrazolo[3,4-c]pyridin-6-yl)-2-methyl-3,4-dihydroisoquinolin-1(2H)-one], the IC50 against FXa lay within 3000 to 10000 nM; in experiment [1], 1000 to 3000 nM.

As for `Cc1cc(C)c(CNC(=O)c2nn(-c3cccc(Cl)c3)c3c2CCN(c2ccc4c(c2)C(=O)N(CCO)CC4)C3=O)cn1` [Example 1256, 1-(3-chlorophenyl)-N-((4,6-dimethylpyridin-3-yl)methyl)-6-(2-(2-hydroxyethyl)-1-oxo-1,2,3,4-tetrahydroisoquinolin-7-yl)-7-oxo-4,5,6,7-tetrahydro-1H-pyrazolo[3,4-c]pyridine-3-carboxamide], the IC50 was above 40000 nM against FXa and 10 to 100 nM in experiment [1].

On to `Cc1nc2c(CNS(=O)(=O)C3CC3)nn(-c3cccc(Cl)c3)c2c(=O)n1-c1ccc2c(c1)CN(CCO)CC2` [Example 3007, N-[[1-(3-Chlorophenyl)-6-[2-(2-hydroxyethyl)-3,4-dihydro-1H-isoquinolin-7-yl]-5-methyl-7-oxopyrazolo[4,3-d]pyrimidin-3-yl]methyl]cyclopropanesulfonamide], for which the results for the half-maximal inhibitory concentration (IC50) (at FXa; in experiment [1]) were 3000 to 10000 nM and 300 to 1000 nM, respectively.

With `CN1CCc2ccc(N3CCc4c(C5=NCCO5)nn(-c5cccc(Cl)c5)c4C3=O)cc2C1=O` [Example 1353, 7-(1-(3-Chlorophenyl)-3-(4,5-dihydrooxazol-2-yl)-7-oxo-1,4,5,7-tetrahydro-6H-pyrazolo[3,4-c]pyridin-6-yl)-2-methyl-3,4-dihydroisoquinolin-1 (2H)-one], the half-maximal inhibitory concentration (IC50) lay within 3000 to 10000 nM on FXa and 300 to 1000 nM in experiment [1].

With `Cc1cn(C)nc1CNC(=O)c1nn(-c2cccc(Cl)c2)c2c(=O)n(-c3ccc4c(c3)CN(C)CC4)c(C)nc12` [Example 3006, 1-(3-chlorophenyl)-N-((1,4-dimethyl-1H-pyrazol-3-yl)methyl)-5-methyl-6-(2-methyl-1,2,3,4-tetrahydroisoquinolin-7-yl)-7-oxo-6,7-dihydro-1H-pyrazolo[4,3-d]pyrimidine-3-carboxamide], the IC50 against FXa is 1000 to 3000 nM; in experiment [1] it was 10 to 100 nM.

Turning to `Cc1cc(CNC(=O)c2nn(-c3cccc(Cl)c3)c3c2CCN(c2ccc4c(c2)C(=O)N(C)CC(=O)N4C)C3=O)nn1C` [Example 1372, 1-(3-chlorophenyl)-N-((1,5-dimethyl-1H-pyrazol-3-yl)methyl)-6-(1,4-dimethyl-2,5-dioxo-2,3,4,5-tetrahydro-1H-benzo[e][1,4]diazepin-7-yl)-7-oxo-4,5,6,7-tetrahydro-1H-pyrazolo[3,4-c]pyridine-3-carboxamide], the IC50 on FXa fell in the range of 10000 to 40000 nM; in experiment [1] it was 300 to 1000 nM.

With `CN1CCc2ccc(N3CCc4c(C(=O)NO)nn(-c5cccc(Cl)c5)c4C3=O)cc2C1=O` [Example 1347, 1-(3-chlorophenyl)-N-hydroxy-6-(2-methyl-1-oxo-1,2,3,4-tetrahydroisoquinolin-7-yl)-7-oxo-4,5,6,7-tetrahydro-1H-pyrazolo[3,4-c]pyridine-3-carboxamide], the half-inhibitory concentration (IC50) on FXa was 3000 to 10000 nM; in experiment [1], 300 to 1000 nM.

Take `Cc1cc(CNC(=O)c2nn(-c3cccc(Cl)c3)c3c2CCN(c2ccc4c(c2)C(=O)N(CCO)CCC4)C3=O)nn1C` [Example 1305, 1-(3-chlorophenyl)-N-((1,5-dimethyl-1H-pyrazol-3-yl)methyl)-6-(2-(2-hydroxyethyl)-1-oxo-2,3,4,5-tetrahydro-1H-benzo[c]azepin-8-yl)-7-oxo-4,5,6,7-tetrahydro-1H-pyrazolo[3,4-c]pyridine-3-carboxamide]: the half-maximal inhibitory concentration (IC50) was in the range of 3000 to 10000 nM against FXa and 10 to 100 nM in experiment [1].

`Cc1ccncc1CNC(=O)c1nn(-c2cccc(Cl)c2)c2c1CCN(c1ccc3c(c1)CN(CCO)C[C@@H]3C)C2=O` [Example 1148, (R)-1-(3-Chlorophenyl)-6-(2-(2-hydroxyethyl)-4-methyl-1,2,3,4-tetrahydroisoquinolin-7-yl)-N-((4-methylpyridin-3-yl)methyl)-7-oxo-4,5,6,7-tetrahydro-1H-pyrazolo[3,4-c]pyridine-3-carboxamide]: the IC50 lay within 10000 to 40000 nM on FXa and 100 to 300 nM in experiment [1].

Consider `Cc1nc2c(C(=O)NCC3CC3)nn(-c3cccc(Cl)c3)c2c(=O)n1-c1ccc2c(c1)C(=O)N(C)CC2` [Example 3014, 1-(3-chlorophenyl)-N-(cyclopropylmethyl)-5-methyl-6-(2-methyl-1-oxo-1,2,3,4-tetrahydroisoquinolin-7-yl)-7-oxo-6,7-dihydro-1H-pyrazolo[4,3-d]pyrimidine-3-carboxamide], for which the IC50 against FXa was above 40000 nM; in experiment [1], 100 to 300 nM.

Regarding `O=C(NCc1ncco1)c1nn(-c2cccc(Cl)c2)c2c1CCN(c1ccc3c(c1)CN(CCO)CC3)C2=O` [Example 1151, 1-(3-chlorophenyl)-6-(2-(2-hydroxyethyl)-1,2,3,4-tetrahydroisoquinolin-7-yl)-N-(oxazol-2-ylmethyl)-7-oxo-4,5,6,7-tetrahydro-1H-pyrazolo[3,4-c]pyridine-3-carboxamide], the values for the IC50 (on FXa; in experiment [1]) were 10000 to 40000 nM and 100 to 300 nM, respectively.

Take `Cc1ccncc1CNC(=O)c1nn(-c2cccc(Cl)c2)c2c(=O)n(-c3ccc4c(c3)CN(CCO)CC4)c(C)nc12` [Example 3011, 1-(3-chlorophenyl)-6-(2-(2-hydroxyethyl)-1,2,3,4-tetrahydroisoquinolin-7-yl)-5-methyl-N-((4-methylpyridin-3-yl)methyl)-7-oxo-6,7-dihydro-1H-pyrazolo[4,3-d]pyrimidine-3-carboxamide]: the IC50 fell in the range of 10000 to 40000 nM against FXa and 10 to 100 nM in experiment [1].

`Cc1cc(C)c(CNC(=O)c2nn(-c3cccc(Cl)c3)c3c2CCN(c2ccc4c(c2)C(=O)N(C)CC4)C3=O)cn1` [Example 1189, 1-(3-chlorophenyl)-N-((4,6-dimethylpyridin-3-yl)methyl)-6-(2-methyl-1-oxo-1,2,3,4-tetrahydroisoquinolin-7-yl)-7-oxo-4,5,6,7-tetrahydro-1H-pyrazolo[3,4-c]pyridine-3-carboxamide]: the 50% inhibitory concentration (IC50) is above 40000 nM against FXa and 10 to 100 nM in experiment [1].
